system: HCT116 cells; test: In vitro cytotoxicity measured by the cell colony formation assay; format: cell-based; settings: HCT116 cells, 72 h drug incubation, colonies counted after 7 days; ID50 = drug concentration producing 50% inhibition of colony formation; read-out: IN VITRO ID 50 (nm) HCT116
Summary of the method: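 Colony-forming survival was scored 7 days after a 72 h, 37 °C compound exposure followed by washout into fresh medium.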

SMILES | IC50
CC(=O)O[C@@]12CO[C@@H]1C[C@H](OC(=O)NC1CCCCC1)[C@@]1(C)C(=O)[C@H](O)C3=C(C)[C@@H](OC(=O)[C@H](O)[C@@H](NC(=O)OC(C)(C)C)c4ccco4)C[C@@](O)([C@@H](OC(=O)c4ccccc4)C12)C3(C)C (stereo partly drawn) [Compound 5373] | < 10 nM
CCNC(=O)O[C@H]1C[C@H]2OC[C@@]2(OC(C)=O)C2[C@H](OC(=O)c3ccccc3)[C@]3(O)C[C@H](OC(=O)[C@H](O)[C@@H](NC(=O)OC(C)(C)C)c4ccco4)C(C)=C([C@@H](O)C(=O)[C@@]21C)C3(C)C (stereo partly drawn) [Compound 5393] | < 1 nM
CC(=O)O[C@@]12CO[C@@H]1C[C@H](OC(=O)Nc1ccc(F)c(F)c1)[C@@]1(C)C(=O)[C@H](O)C3=C(C)[C@@H](OC(=O)[C@H](O)[C@@H](NC(=O)OC(C)(C)C)c4ccco4)C[C@@](O)([C@@H](OC(=O)c4ccccc4)C12)C3(C)C (stereo partly drawn) [Compound 5415] | < 1 nM

same assay, conditions: HCT116 cells, 72 h incubation with drug, colonies counted after 7 days; ID50 = drug concentration producing 50% inhibition of colony formation; read-out: IN VITRO ID 50 (nm) HCT116

SMILES | IC50
C/C=C/C(=O)N[C@@H](c1ccoc1)[C@@H](O)C(=O)O[C@H]1C[C@@]2(O)[C@@H](OC(=O)c3ccccc3)C3[C@](C)(C(=O)[C@H](O)C(=C1C)C2(C)C)[C@@H](OC(=O)OCC)C[C@H]1OC[C@@]31OC(C)=O (stereo partly drawn) [Compound 4904] | < 10 nM
CCOC(=O)O[C@H]1C(=O)[C@@]2(C)C([C@H](OC(=O)c3ccccc3)[C@]3(O)C[C@H](OC(=O)[C@H](O)[C@@H](NC(=O)OCC(C)C)c4ccsc4)C(C)=C1C3(C)C)[C@]1(OC(C)=O)CO[C@@H]1C[C@@H]2O (stereo partly drawn) [Compound 4924] | < 10 nM
CC=CC(=O)NC(c1ccoc1)C(O)C(=O)OC1CC2(O)C(OC(=O)c3ccccc3)C3C4(OC(C)=O)COC4CC(O)C3(C)C(=O)C(OC(=O)OCC)C(=C1C)C2(C)C (stereo not drawn) [Compound 4959] | < 1 nM
C/C=C/C(=O)N[C@@H](c1ccsc1)[C@@H](O)C(=O)O[C@H]1C[C@@]2(O)[C@@H](OC(=O)c3ccccc3)C3[C@](C)(C(=O)[C@H](O)C(=C1C)C2(C)C)[C@@H](OC(=O)OC)C[C@H]1OC[C@@]31OC(C)=O (stereo partly drawn) [Compound 4969] | < 1 nM
CCOC(=O)O[C@H]1C[C@H]2OC[C@@]2(OC(C)=O)C2[C@H](OC(=O)c3ccccc3)[C@]3(O)C[C@H](OC(=O)[C@H](O)[C@@H](NC(=O)OCC(C)C)c4ccsc4)C(C)=C([C@@H](O)C(=O)[C@@]21C)C3(C)C (stereo partly drawn) [Compound 4979] | < 10 nM
C/C=C/C(=O)N[C@@H](c1ccsc1)[C@@H](O)C(=O)O[C@H]1C[C@@]2(O)[C@@H](OC(=O)c3ccccc3)C3[C@](C)(C(=O)[C@H](O)C(=C1C)C2(C)C)[C@@H](OC(=O)OCC)C[C@H]1OC[C@@]31OC(C)=O (stereo partly drawn) [Compound 4999] | < 1 nM
CCOC(=O)O[C@H]1C(=O)[C@@]2(C)C([C@H](OC(=O)c3ccccc3)[C@]3(O)C[C@H](OC(=O)[C@H](O)[C@H](C=C(C)C)NC(=O)OCC(C)C)C(C)=C1C3(C)C)[C@]1(OC(C)=O)CO[C@@H]1C[C@@H]2O (stereo partly drawn) [Compound 5155] | < 10 nM
CCOC(=O)O[C@H]1C[C@H]2OC[C@@]2(OC(C)=O)C2[C@H](OC(=O)c3ccccc3)[C@]3(O)C[C@H](OC(=O)[C@H](O)[C@@H](NC(=O)OC(C)(C)C)C4CC4)C(C)=C([C@@H](O)C(=O)[C@@]21C)C3(C)C (stereo partly drawn) [Compound 5165] | < 1 nM
CCOC(=O)O[C@H]1C(=O)[C@@]2(C)C([C@H](OC(=O)c3ccccc3)[C@]3(O)C[C@H](OC(=O)[C@H](O)[C@@H](NC(=O)OC(C)(C)C)C4CC4)C(C)=C1C3(C)C)[C@]1(OC(C)=O)CO[C@@H]1C[C@@H]2O (stereo partly drawn) [Compound 5171] | < 1 nM
COC(=O)O[C@H]1C[C@H]2OC[C@@]2(OC(C)=O)C2[C@H](OC(=O)c3ccccc3)[C@]3(O)C[C@H](OC(=O)[C@H](O)[C@@H](NC(=O)OCC(C)C)C4CC4)C(C)=C([C@@H](O)C(=O)[C@@]21C)C3(C)C (stereo partly drawn) [Compound 5211] | < 10 nM
CCOC(=O)O[C@H]1C[C@H]2OC[C@@]2(OC(C)=O)C2[C@H](OC(=O)c3ccccc3)[C@]3(O)C[C@H](OC(=O)[C@H](O)[C@@H](NC(=O)OCC(C)C)C4CC4)C(C)=C([C@@H](O)C(=O)[C@@]21C)C3(C)C (stereo partly drawn) [Compound 5225] | < 10 nM
CC(=O)O[C@@]12CO[C@@H]1C[C@H](OC(=O)OCc1ccccc1)[C@@]1(C)C(=O)[C@H](O)C3=C(C)[C@@H](OC(=O)[C@H](O)[C@@H](NC(=O)OC(C)(C)C)c4ccco4)C[C@@](O)([C@@H](OC(=O)c4ccccc4)C12)C3(C)C (stereo partly drawn) [Compound 5433] | < 1 nM

same assay, conditions: HCT116 colony formation; 72 h drug incubation, colonies counted after 7 days; Example 5, C-7 ester/C-10 hydroxy taxanes; read-out: IN VITRO ID 50 (nm) HCT116

SMILES | IC50
C/C=C/C(=O)N[C@@H](c1ccoc1)[C@@H](O)C(=O)O[C@H]1C[C@@]2(O)[C@@H](OC(=O)c3ccccc3)C3[C@](C)(C(=O)[C@H](O)C(=C1C)C2(C)C)[C@@H](OC(=O)CC)C[C@H]1OC[C@@]31OC(C)=O (stereo partly drawn) [Compound 4898] | < 1 nM
C/C=C/C(=O)N[C@@H](c1ccoc1)[C@@H](O)C(=O)O[C@H]1C[C@@]2(O)[C@@H](OC(=O)c3ccccc3)C3[C@](C)(C(=O)[C@H](O)C(=C1C)C2(C)C)[C@@H](OC(=O)CCC)C[C@H]1OC[C@@]31OC(C)=O (stereo partly drawn) [Compound 4939] | < 1 nM
C/C=C/C(=O)N[C@@H](c1ccsc1)[C@@H](O)C(=O)O[C@H]1C[C@@]2(O)[C@@H](OC(=O)c3ccccc3)C3[C@](C)(C(=O)[C@H](O)C(=C1C)C2(C)C)[C@@H](OC(=O)CC)C[C@H]1OC[C@@]31OC(C)=O (stereo partly drawn) [Compound 5020] | < 1 nM
C/C=C/C(=O)N[C@@H](c1ccsc1)[C@@H](O)C(=O)O[C@H]1C[C@@]2(O)[C@@H](OC(=O)c3ccccc3)C3[C@](C)(C(=O)[C@H](O)C(=C1C)C2(C)C)[C@@H](OC(=O)CCC)C[C@H]1OC[C@@]31OC(C)=O (stereo partly drawn) [Compound 5030] | < 1 nM
CCC(=O)O[C@H]1C[C@H]2OC[C@@]2(OC(C)=O)C2[C@H](OC(=O)c3ccccc3)[C@]3(O)C[C@H](OC(=O)[C@H](O)[C@@H](NC(=O)OC(C)(C)C)C4CC4)C(C)=C([C@@H](O)C(=O)[C@@]21C)C3(C)C (stereo partly drawn) [Compound 5070] | < 10 nM
CCCC(=O)O[C@H]1C[C@H]2OC[C@@]2(OC(C)=O)C2[C@H](OC(=O)c3ccccc3)[C@]3(O)C[C@H](OC(=O)[C@H](O)[C@@H](NC(=O)OC(C)(C)C)C4CC4)C(C)=C([C@@H](O)C(=O)[C@@]21C)C3(C)C (stereo partly drawn) [Compound 5080] | < 1 nM
CCC(=O)O[C@H]1C[C@H]2OC[C@@]2(OC(C)=O)C2[C@H](OC(=O)c3ccccc3)[C@]3(O)C[C@H](OC(=O)[C@H](O)[C@H](C=C(C)C)NC(=O)OCC(C)C)C(C)=C([C@@H](O)C(=O)[C@@]21C)C3(C)C (stereo partly drawn) [Compound 5121] | 21.1 nM
CCCC(=O)O[C@H]1C[C@H]2OC[C@@]2(OC(C)=O)C2[C@H](OC(=O)c3ccccc3)[C@]3(O)C[C@H](OC(=O)[C@H](O)[C@H](C=C(C)C)NC(=O)OCC(C)C)C(C)=C([C@@H](O)C(=O)[C@@]21C)C3(C)C (stereo partly drawn) [Compound 5131] | < 10 nM
CCC(=O)O[C@H]1C[C@H]2OC[C@@]2(OC(C)=O)C2[C@H](OC(=O)c3ccccc3)[C@]3(O)C[C@H](OC(=O)[C@H](O)[C@@H](NC(=O)OCC(C)C)C4CC4)C(C)=C([C@@H](O)C(=O)[C@@]21C)C3(C)C (stereo partly drawn) [Compound 5191] | < 10 nM
CCCC(=O)O[C@H]1C[C@H]2OC[C@@]2(OC(C)=O)C2[C@H](OC(=O)c3ccccc3)[C@]3(O)C[C@H](OC(=O)[C@H](O)[C@@H](NC(=O)OCC(C)C)C4CC4)C(C)=C([C@@H](O)C(=O)[C@@]21C)C3(C)C (stereo partly drawn) [Compound 5202] | < 10 nM

same assay, conditions: HCT116 colony formation; 72 h drug incubation, colonies counted after 7 days; Example 10, C-10 ester/C-7 hydroxy taxanes; read-out: IN VITRO ID 50 (nm) HCT116

SMILES | IC50
C/C=C/C(=O)N[C@@H](c1ccoc1)[C@@H](O)C(=O)O[C@H]1C[C@@]2(O)[C@@H](OC(=O)c3ccccc3)C3[C@](C)(C(=O)[C@H](OC(=O)CC)C(=C1C)C2(C)C)[C@@H](O)C[C@H]1OC[C@@]31OC(C)=O (stereo partly drawn) [Compound 4888] | < 1 nM
C/C=C/C(=O)N[C@@H](c1ccoc1)[C@@H](O)C(=O)O[C@H]1C[C@@]2(O)[C@@H](OC(=O)c3ccccc3)C3[C@](C)(C(=O)[C@H](OC(=O)CCC)C(=C1C)C2(C)C)[C@@H](O)C[C@H]1OC[C@@]31OC(C)=O (stereo partly drawn) [Compound 4919] | < 1 nM
C/C=C/C(=O)N[C@@H](c1ccoc1)[C@@H](O)C(=O)O[C@H]1C[C@@]2(O)[C@@H](OC(=O)c3ccccc3)C3[C@](C)(C(=O)[C@H](OC(=O)C4CC4)C(=C1C)C2(C)C)[C@@H](O)C[C@H]1OC[C@@]31OC(C)=O (stereo partly drawn) [Compound 4944] | < 1 nM
CC(=O)O[C@@]12CO[C@@H]1C[C@H](O)[C@@]1(C)C(=O)[C@H](OC(=O)C3CC3)C3=C(C)[C@@H](OC(=O)[C@H](O)[C@@H](NC(=O)OCC(C)C)c4ccsc4)C[C@@](O)([C@@H](OC(=O)c4ccccc4)C12)C3(C)C (stereo partly drawn) [Compound 5011] | < 10 nM
C/C=C/C(=O)N[C@@H](c1ccsc1)[C@@H](O)C(=O)O[C@H]1C[C@@]2(O)[C@@H](OC(=O)c3ccccc3)C3[C@](C)(C(=O)[C@H](OC(=O)C4CC4)C(=C1C)C2(C)C)[C@@H](O)C[C@H]1OC[C@@]31OC(C)=O (stereo partly drawn) [Compound 5040] | < 1 nM
CCC(=O)O[C@H]1C(=O)[C@@]2(C)C([C@H](OC(=O)c3ccccc3)[C@]3(O)C[C@H](OC(=O)[C@H](O)[C@H](C=C(C)C)NC(=O)OCC(C)C)C(C)=C1C3(C)C)[C@]1(OC(C)=O)CO[C@@H]1C[C@@H]2O (stereo partly drawn) [Compound 5065] | < 10 nM
CCCC(=O)O[C@H]1C(=O)[C@@]2(C)C([C@H](OC(=O)c3ccccc3)[C@]3(O)C[C@H](OC(=O)[C@H](O)[C@H](C=C(C)C)NC(=O)OCC(C)C)C(C)=C1C3(C)C)[C@]1(OC(C)=O)CO[C@@H]1C[C@@H]2O (stereo partly drawn) [Compound 5144] | < 10 nM
CC(=O)O[C@@]12CO[C@@H]1C[C@H](O)[C@@]1(C)C(=O)[C@H](OC(=O)C3CC3)C3=C(C)[C@@H](OC(=O)[C@H](O)[C@@H](NC(=O)OCC(C)C)C4CC4)C[C@@](O)([C@@H](OC(=O)c4ccccc4)C12)C3(C)C (stereo partly drawn) [Compound 5232] | < 10 nM
